IC50 data for 20 compounds are collected here from patent EP4227307A1 (Genzyme Corporation, priority 2022, dated 2023).

Structures can show the parent of a compound that is named as a salt.

The target of this assay is T1, human recombinant 6His-Nterm SHP2 full-length (Thr2-Arg593) (Homo sapiens, UniProt Q06124).
T1 construct: 6His-Nterm SHP2 full-length (Thr2-Arg593, R&D system); 6His (N); purchased R&D system
T1 sequence (Q06124 2-593): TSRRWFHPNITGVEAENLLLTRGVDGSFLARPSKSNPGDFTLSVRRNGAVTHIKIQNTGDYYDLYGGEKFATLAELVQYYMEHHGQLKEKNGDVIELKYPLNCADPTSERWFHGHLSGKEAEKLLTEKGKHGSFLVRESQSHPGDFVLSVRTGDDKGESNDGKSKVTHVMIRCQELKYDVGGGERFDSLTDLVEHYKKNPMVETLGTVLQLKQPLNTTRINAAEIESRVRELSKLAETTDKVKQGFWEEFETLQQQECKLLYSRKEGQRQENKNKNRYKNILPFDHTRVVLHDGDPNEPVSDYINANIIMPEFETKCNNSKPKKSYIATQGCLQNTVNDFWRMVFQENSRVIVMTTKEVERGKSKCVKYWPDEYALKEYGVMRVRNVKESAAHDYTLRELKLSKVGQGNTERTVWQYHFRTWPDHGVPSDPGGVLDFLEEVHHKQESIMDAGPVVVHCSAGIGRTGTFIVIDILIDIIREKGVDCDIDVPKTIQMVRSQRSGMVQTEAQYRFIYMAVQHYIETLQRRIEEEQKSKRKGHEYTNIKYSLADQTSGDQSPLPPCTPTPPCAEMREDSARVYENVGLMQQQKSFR
The assay can be described thus: SHP2 Phosphatase Assay (DiFMUP fluorescence). Type of assay: biochemical. The settings on record: SHP2 0.2 nM pre-incubated with 100 nM bi-phosphorylated activating peptide; compound 1000-0.05 nM, 30 min pre-incubation; DiFMUP 20 µM, 45 min, room temperature; 10-concentration dose-response. The method in brief: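 SHP2 (0.2 nM) preactivated ≥10 min with 100 nM bis-phosphorylated peptide, then 30 min with compound (10 concentrations, 1000–0.05 nM) at room temperature, pH 7.2 HEPES buffer with DTT. DiFMUP (20 µM, added solution) reacted 45 min, pervanadate-stopped; fluorescence 350/450 nm. IC50 by 4-parameter logistic fit.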
A word on the IC50: it is the concentration that inhibits the measured activity by half. `Cc1cc2c(cn1)CC1(CCN(c3nc(C)c(-c4ccnc(C)c4Cl)n4nccc34)CC1)[C@@H]2N` [Compound 112, (5S)-1'-[7-(3-chloro-2-methyl-4-pyridyl)-6-methyl-pyrazolo[1,5-a]pyrazin-4-yl]-3-methyl-spiro[5,7-dihydrocyclopenta[c]pyridine-6,4'-piperidine]-5-amine hydrochloride]: the IC50 came to 5 nM.

Regarding `Cc1nc(N2CCC3(CC2)Cc2ncccc2[C@@H]3N)c2ccnn2c1-c1ccccc1` [Compound 141, (5R)-1'-(6-methyl-7-phenyl-pyrazolo[1,5-a]pyrazin-4-yl)spiro[5,7-dihydrocyclopenta[b]pyridine-6,4'-piperidine]-5-amine], the IC50 was found to be 853 nM.

Consider `Cc1nc(N2CCC3(CC2)Cc2ncccc2[C@H]3N)c2cc(CO)nn2c1-c1cccc(F)c1F` [Compound 37, [4-[(5S)-5-aminospiro[5,7-dihydrocyclopenta[b]pyridine-6,4'-piperidine]-1'-yl]-7-(2,3-difluorophenyl)-6-methyl-pyrazolo[1,5-a]pyrazin-2-yl]methanol], for which the half-inhibitory concentration (IC50) was found to be 9 nM.

For the compound `Cc1nc(N2CCC3(CC2)Cc2c(F)cc(F)cc2[C@H]3N)c2ccnn2c1-c1cnn(C)c1C` [Compound 102, (1S)-1'-[7-(1,5-dimethylpyrazol-4-yl)-6-methyl-pyrazolo[1,5-a]pyrazin-4-yl]-4,6-difluoro-spiro[indane-2,4'-piperidine]-1-amine hydrochloride], the IC50 stood at 17 nM.

`Cc1nc(N2CCC3(CC2)Cc2ccc(C#N)cc2[C@@H]3N)c2ccnn2c1-c1cnn(C)c1C` (single isomer, unassigned) [Compound 212]: the IC50 worked out at 288 nM.

As for `Cc1nc(N2CCC3(CC2)Cc2ncccc2[C@H]3N)c2cc(C(F)F)nn2c1-c1cnn(C)c1C` [Compound 36, (5S)-1'-[2-(difluoromethyl)-7-(1,5-dimethylpyrazol-4-yl)-6-methyl-pyrazolo[1,5-a]pyrazin-4-yl]spiro[5,7-dihydrocyclopenta[b]pyridine-6,4'-piperidine]-5-amine], the 50% inhibitory concentration (IC50) came out at 228 nM.

As to `Cc1nc(N2CCC3(CC2)Cc2c(ccnc2CO)[C@H]3N)c2ccnn2c1-c1ccccc1F` [Compound 35, [(5S)-5-amino-1'-[7-(2-fluorophenyl)-6-methyl-pyrazolo[1,5-a]pyrazin-4-yl]spiro[5,7-dihydrocyclopenta[c]pyridine-6,4'-piperidine]-1-yl]methanol], the IC50 came to 8 nM.

Consider `Cc1nc(N2CCC3(CC2)Cc2ncccc2[C@H]3N)c2ccnn2c1-c1cc(C(F)(F)F)nn1C` [Compound 163, (5S)-1'-[6-methyl-7-[2-methyl-5-(trifluoromethyl)pyrazol-3-yl]pyrazolo[1,5-a]pyrazin-4-yl]spiro[5,7-dihydrocyclopenta[b]pyridine-6,4'-piperidine]-5-amine], for which the IC50 turned out to be 30 nM.

Consider `Cc1nccc(Sc2c(C)nc(N3CCC4(CC3)Cc3ncccc3[C@H]4N)c3ccnn23)c1F` [Compound 229, (5S)-1'-[7-[(3-fluoro-2-methyl-4-pyridyl)sulfanyl]-6-methyl-pyrazolo[1,5-a]pyrazin-4-yl]spiro[5,7-dihydrocyclopenta[b]pyridine-6,4'-piperidine]-5-amine], for which the IC50 stood at 14 nM.

For `COc1ccc2c(c1)[C@@H](N)C1(CCN(c3nc(C)c(-c4cccc(F)c4Cl)n4nccc34)CC1)C2` [Compound 9, (1S)-1'-[7-(2-chloro-3-fluorophenyl)-6-methyl-pyrazolo[1,5-a]pyrazin-4-yl]-6-methoxy-spiro[indane-2,4'-piperidine]-1-amine hydrochloride], the IC50 stood at 43 nM.

Regarding `COc1ccc2c(n1)CC1(CCN(c3nc(C)c(-c4ccccc4F)n4nccc34)CC1)[C@@H]2N` [Compound 56, (5S)-1'-[7-(2-fluorophenyl)-6-methyl-pyrazolo[1,5-a]pyrazin-4-yl]-2-methoxy-spiro[5,7-dihydrocyclopenta[b]pyridine-6,4'-piperidine]-5-amine], the concentration for half-maximal inhibition (IC50) was 17 nM.

Regarding `Cc1nc(N2CCC3(CC2)Cc2ncccc2[C@H]3N)c2ccnn2c1-c1ccncc1Cl` [Compound 100, (5S)-1'-[7-(3-chloro-4-pyridyl)-6-methyl-pyrazolo[1,5-a]pyrazin-4-yl]spiro[5,7-dihydrocyclopenta[b]pyridine-6,4'-piperidine]-5-amine hydrochloride], the concentration for half-maximal inhibition (IC50) came to 13 nM.

As for `Cc1nc(N2CCC3(CC2)Cc2ncccc2[C@H]3N)c2ccnn2c1-c1ccnc(C(F)(F)F)c1F` [Compound 41, (5S)-1'-[7-[3-fluoro-2-(trifluoromethyl)-4-pyridyl]-6-methyl-pyrazolo[1,5-a]pyrazin-4-yl]spiro[5,7-dihydrocyclopenta[b]pyridine-6,4'-piperidine]-5-amine], the IC50 amounted to 15 nM.

Consider `COc1ccc2c(n1)CC1(CCN(c3nc(C)c(-c4cccc(F)c4F)n4nccc34)CC1)[C@@H]2N` [Compound 221, (5S)-1'-[7-(2,3-difluorophenyl)-6-methyl-pyrazolo[1,5-a]pyrazin-4-yl]-2-methoxy-spiro[5,7-dihydrocyclopenta[b]pyridine-6,4'-piperidine]-5-amine], for which the IC50 is 21 nM.

Regarding `COc1nc2c(s1)[C@@H](N)C1(CCN(c3nc(C)c(-c4cnn(C)c4C)n4nccc34)CC1)C2` [Compound 220, (6S)-1'-[7-(1,5-Dimethylpyrazol-4-yl)-6-methyl-pyrazolo[1,5-a]pyrazin-4-yl]-2-methoxy-spiro[4,6-dihydrocyclopenta[d]thiazole-5,4'-piperidine]-6-amine], the IC50 came out at 26 nM.

As for `COc1cc2c(cn1)CC1(CCN(c3nc(C)c(-c4ccccc4)n4nccc34)CC1)[C@@H]2N` [Compound 135, (5S)-3-methoxy-1'-(6-methyl-7-phenyl-pyrazolo[1,5-a]pyrazin-4-yl)spiro[5,7-dihydrocyclopenta[c]pyridine-6,4'-piperidine]-5-amine], the IC50 stood at 12 nM.

Regarding `Cc1cc2c(cn1)CC1(CCN(c3nc(C)c(-c4cccc(C#N)c4F)n4nccc34)CC1)[C@@H]2N` [Compound 117, 3-[4-[(5S)-5-amino-3-methyl-spiro[5,7-dihydrocyclopenta[c]pyridine-6,4'-piperidine]-1'-yl]-6-methyl-pyrazolo[1,5-a]pyrazin-7-yl]-2-fluoro-benzonitrile hydrochloride], the half-maximal inhibitory concentration (IC50) worked out at 10 nM.

With `Cc1cc(-c2c(C)nc(N3CCC4(CC3)Cc3ncccc3[C@H]4N)c3ccnn23)cnn1` [Compound 124, (5S)-1'-[6-methyl-7-(6-methylpyridazin-4-yl)pyrazolo[1,5-a]pyrazin-4-yl]spiro[5,7-dihydrocyclopenta[b]pyridine-6,4'-piperidine]-5-amine hydrochloride], the IC50 was 391 nM.

As to `Cc1nc(N2CCC3(CC2)Cc2ncccc2[C@H]3N)c2ccnn2c1-c1ccccc1` [Compound 39, (5S)-1'-(6-methyl-7-phenyl-pyrazolo[1,5-a]pyrazin-4-yl)spiro[5,7-dihydrocyclopenta[b]pyridine-6,4'-piperidine]-5-amine], the IC50 was found to be 5 nM.

As for `Cc1nc(N2CCC3(CC2)Cc2ncccc2[C@H]3N)c2ccnn2c1-c1cccc2c1OCC2` [Compound 178, (5S)-1'-[7-(2,3-dihydrobenzofuran-7-yl)-6-methyl-pyrazolo[1,5-a]pyrazin-4-yl]spiro[5,7-dihydrocyclopenta[b]pyridine-6,4'-piperidine]-5-amine], the concentration for half-maximal inhibition (IC50) turned out to be 14 nM.
